Common to all, as to assay: Herbicidal action, field trial, post-emergence
Common to all, as to assay type: in vivo

The test system of assay [1] is Echinocloa crus-galli. The source says: (§1) The growth stages of the different weed or crop plant species are indicated according to the BBCH monograph “Growth stages of mono- and dicotyledonous plants”, 2nd edition, 2001, ed. Uwe Meier, Federal Biological Research Centre for Agriculture and Forestry (Biologische Bundesanstalt für Land und Forstwirtschaft). The respective BBCH stages are mentioned in brackets for the different weed or crop plant species and indicate the BBCH stage for the majority of the respective weed or crop plant species.
(§2) The dose rates of herbicidal ingredients used in each case are indicated for the respective active ingredient in brackets and refer to the amount of active ingredient per hectare (g a.i./ha).
(§3) EC=A+B+C−[((A·B)+(A·C)+(B·C)]100)+(A·B·C/10000)

The test system of assay [2] is Setaria viridis.
Description: as §1, §2, §3

Assay [3] concerns Zea mays.
Description: as §1, §2, §3

The test system of assay [4] is Panicum maximum.
Description: as §1, §2, §3

For assay [5], the system named is Polygonum convolvulus.
Description: as §1, §2, §3

Assay [6] relates to Chenopodium album.
Description: as §1, §2, §3

Assay [7] relates to Abutilon theophrasti. Conditions: Table 2.
Description: as §1, §2

Consider `O=C(Nc1ccc(F)cc1F)c1cccnc1Oc1cccc(C(F)(F)F)c1` [Diflufenican, diflufenican], for which the “Herbicidal Activity 13 DAT (EA)” value in assay [1] (60 g a.i./ha, Table 5) is listed as 0%; in assay [1] (90 g a.i./ha, Table 11) it was 0%; in assay [1] (150 g a.i./ha, Table 5) it was 0%; in assay [1] (150 g a.i./ha, Table 11) it was 0%; in assay [2] (60 g a.i./ha, Table 4), 0%; in assay [2] (90 g a.i./ha, Table 10) it was 0%. In addition, the “Herbicidal Activity 13 DAT (EA)” value in assay [2] (150 g a.i./ha, Table 4) stood at 0%; in assay [2] (150 g a.i./ha, Table 10), 0%; in assay [3] (60 g a.i./ha, Table 7) it was 13%; in assay [3] (90 g a.i./ha, Table 13), 10%; in assay [3] (150 g a.i./ha, Table 7), 25%; in assay [3] (150 g a.i./ha, Table 13), 25%. For the same compound, the “Herbicidal Activity 13 DAT (EA)” value in assay [4] (60 g a.i./ha, Table 6) is recorded as 10%; in assay [4] (90 g a.i./ha, Table 12) it was 10%; in assay [4] (150 g a.i./ha, Table 6), 10%; in assay [4] (150 g a.i./ha, Table 12), 10%; in assay [5] (60 g a.i./ha, Table 1), 40%; in assay [5] (90 g a.i./ha, Table 8), 45%. The “Herbicidal Activity 13 DAT (EA)” value in assay [5] (150 g a.i./ha, Table 1) was determined as 60%; in assay [5] (150 g a.i./ha, Table 8), 60%; in assay [6] (60 g a.i./ha, Table 3), 10%; in assay [6] (90 g a.i./ha, Table 9) it was 10%; in assay [6] (150 g a.i./ha, Table 3) it was 10%; in assay [6] (150 g a.i./ha, Table 9), 10%. The “Herbicidal Activity 13 DAT (EA)” value in assay [7] (60 g a.i./ha) is given as 35%; in assay [7] (150 g a.i./ha) it was 65%.

As for `CCCCCCCCC(=O)O` [Pelargonic acid], the “Herbicidal Activity 13 DAT (EA)” value stood at 25% in assay [1] (6000 g a.i./ha, Table 5); 13% in assay [1] (6000 g a.i./ha, Table 11); 35% in assay [1] (16000 g a.i./ha, Table 5); 30% in assay [1] (16000 g a.i./ha, Table 11); 40% in assay [2] (6000 g a.i./ha, Table 4); 25% in assay [2] (6000 g a.i./ha, Table 10). In addition, the “Herbicidal Activity 13 DAT (EA)” value came out at 55% in assay [2] (16000 g a.i./ha, Table 4); 50% in assay [2] (16000 g a.i./ha, Table 10); 40% in assay [3] (6000 g a.i./ha, Table 7); 39% in assay [3] (6000 g a.i./ha, Table 13); 60% in assay [3] (16000 g a.i./ha, Table 7); 63% in assay [3] (16000 g a.i./ha, Table 13). Also, the “Herbicidal Activity 13 DAT (EA)” value in assay [4] (6000 g a.i./ha, Table 6) amounted to 10%; in assay [4] (6000 g a.i./ha, Table 12) it was 15%; in assay [4] (16000 g a.i./ha, Table 6) it was 65%; in assay [4] (16000 g a.i./ha, Table 12), 58%; in assay [5] (6000 g a.i./ha, Table 1), 10%; in assay [5] (6000 g a.i./ha, Table 8), 25%. In addition, the “Herbicidal Activity 13 DAT (EA)” value in assay [5] (16000 g a.i./ha, Table 1) was determined as 89%; in assay [5] (16000 g a.i./ha, Table 8) it was 90%; in assay [6] (6000 g a.i./ha, Table 3), 45%; in assay [6] (6000 g a.i./ha, Table 9), 42.5%; in assay [6] (16000 g a.i./ha, Table 3), 88%; in assay [6] (16000 g a.i./ha, Table 9) it was 84%. Also, the figures for the “Herbicidal Activity 13 DAT (EA)” value in assay [7] (6000 g a.i./ha) and in assay [7] (16000 g a.i./ha) were 40% and 80%, respectively.

For `Cc1ccc2c(c1)[C@H](Nc1nc(N)nc([C@@H](C)F)n1)[C@@H](C)C2` (mixture of isomers) [Indaziflam, N2-[(1R,2S)-2,3-dihydro-2,6-dimethyl-1H-inden-1-yl]-6-[(1RS)-1-fluoroethyl]-1,3,5-triazine-2,4-diamine], the “Herbicidal Activity 13 DAT (EA)” value in assay [1] (10 g a.i./ha, Table 11) turned out to be 0%; in assay [1] (25 g a.i./ha, Table 11), 0%; in assay [2] (10 g a.i./ha, Table 10), 0%; in assay [2] (25 g a.i./ha, Table 10), 0%; in assay [3] (10 g a.i./ha, Table 13), 0%; in assay [3] (25 g a.i./ha, Table 13) it was 0%. Also, the “Herbicidal Activity 13 DAT (EA)” value in assay [4] (10 g a.i./ha, Table 12) is 0%; in assay [4] (25 g a.i./ha, Table 12), 0%; in assay [5] (10 g a.i./ha, Table 8), 20%; in assay [5] (25 g a.i./ha, Table 8) it was 20%; in assay [6] (10 g a.i./ha, Table 9) it was 0%; in assay [6] (25 g a.i./ha, Table 9), 10%.

For the origin of these results see patent publication US20230128357A1, “Compound Combination with Superior Herbicidal Activity” (priority 2020, published 2023).
